The record followed here is US8268842B2, “Fused ring 4-oxopyrimidine derivative” (MSD K.K., priority 2004, dated 2012).

The structures appear in SMILES notation. Read-outs that look alike come from different tables or passages of the source.

Data set [1] in a line: Brain/cerebrospinal fluid activity test. The following applies: SD type male rats, 2 hours after oral administration (10 mg/kg); for concentration at 2 h: rat. Type of data set: in vivo, rat. As for the experimental part:
The test compound (the compound of Example 1) was administered orally or intravenously to SD type male rats (7-10 weeks old, 200-400 g), and exsanguination was performed from the abdominal aorta under ether anesthesia using a heparin treatment syringe at a predetermined time. The skin at the back of the head was cut open, pierced with a 30G dental needle between the cervical vertebrae, and inserted into the subarachnoid space. 50-100 μL of cerebrospinal fluid was extracted by a 1 mL syringe via a tube connected to the 30G needle, and the brain was extracted. A blood sample was centrifuged (4° C., 6000 rpm, 10 minutes), and three times the amount of ethanol (containing an internal reference) was added to the plasma and stirred. 2 mL of water was added to a brain sample, homogenized, a part was removed, and three times the amount of ethanol (containing an internal reference) was added and stirred. The cerebrospinal fluid was taken, three times the amount of ethanol (containing an internal reference) was added, and stirred. The above sample was left at −20° C. for 20 minutes, centrifuged (4° C., 12,000 g, 10 minutes), the supernatant liquid was analyzed by LC/MS/MS, and the concentration in plasma, brain and cerebrospinal fluid was measured by the relative calibration curve method.

Data set [2] in a line: Kinetic test (plasma concentration after oral or intravenous administration). The following applies: rat, SD type male rats, fasted overnight. Type of data set: in vivo. The method, then: The test compound (the compound of Example 1) was administered orally or intravenously to SD type male rats (7-10 weeks old, 200-400 g) which had abstained from food overnight, and about 100 μL of blood was collected from a caudal vein using a heparinized capillary tube at a predetermined time. The blood was centrifuged (4° C., 6000 rpm, 10 minutes), and plasma was obtained. Three times the amount of ethanol (containing an internal reference) was added to the plasma, stirred, left for 20 minutes at −20° C., and centrifuged (4° C., 10,000 rpm, 10 minutes). The supernatant liquid was analyzed by LC/MS/MS, and the plasma concentration was measured by the relative calibration curve method.

In data set [3] the target is T1, human histamine H3 receptor (Homo sapiens, UniProt Q9Y5N1).
T1 construct: expressed in transfected cells; host or cells: HEK293 and CHO-K1
T1 sequence (Q9Y5N1 whole entry): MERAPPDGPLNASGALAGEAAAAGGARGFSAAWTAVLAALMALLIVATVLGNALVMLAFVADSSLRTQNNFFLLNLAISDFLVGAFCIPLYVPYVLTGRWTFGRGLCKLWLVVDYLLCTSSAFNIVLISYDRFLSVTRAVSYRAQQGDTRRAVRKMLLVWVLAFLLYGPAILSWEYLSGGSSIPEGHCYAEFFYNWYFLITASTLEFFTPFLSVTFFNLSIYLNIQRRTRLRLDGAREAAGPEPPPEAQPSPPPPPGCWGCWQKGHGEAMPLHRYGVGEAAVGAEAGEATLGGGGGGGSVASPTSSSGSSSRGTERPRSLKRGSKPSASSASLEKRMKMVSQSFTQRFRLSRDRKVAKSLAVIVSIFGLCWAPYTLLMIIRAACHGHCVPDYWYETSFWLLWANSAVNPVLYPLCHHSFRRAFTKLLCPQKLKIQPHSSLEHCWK
As to the kind of experiment: Histamine analog coupling inhibition test. Type of data set: binding. From the text: A cDNA sequence [International Patent Application WO00/3916 Specification No. 4] which encodes human histamine H3 receptor was cloned using the expression vectors pCR2.1, pEF1x (product of Invitrogen), and pCI-neo (product of Promega Inc.). The expression vector obtained was transfected to the host cells, HEK293 and CHO-K1 (American type culture collection), using the cationic lipid method [Proceedings of the National Academy of Sciences of the United States of America, Vol. 84, p. 7413 (1987), and histamine H3 receptor expression cells were thus obtained.
A film preparation made from the cells which represented the histamine H3 receptor, the test compound (the compound of Example 1) and 20,000 cpm of [3H]N-α-methylhistamine (product of NEN) were incubated in an assay buffer solution (50 mM Tris buffer solution, pH 7.4) at 25° C. for 2 hours, and filtered on a glass filter GF/C. After washing by 50 mM Tris buffer solution, pH7.4, the radioactivity on the glass filter was found. Non-specific linkages were measured in the presence of 10 microM thioperamide (product of SIGAM), and the 50% inhibition concentration (IC50 value) of the test compound with respect to specific N-α-methylhistamine linkages was found (Molecular Pharmacology, Vol. 55, p. 1101 (1999)).

Data set [4] deals with T2, histamine H3 receptor (Rattus norvegicus, UniProt Q9QYN8).
T2 construct: from tissue; host or cells: living male SD rat (brain, third ventricle agonist administration)
T2 sequence (Q9QYN8 whole entry): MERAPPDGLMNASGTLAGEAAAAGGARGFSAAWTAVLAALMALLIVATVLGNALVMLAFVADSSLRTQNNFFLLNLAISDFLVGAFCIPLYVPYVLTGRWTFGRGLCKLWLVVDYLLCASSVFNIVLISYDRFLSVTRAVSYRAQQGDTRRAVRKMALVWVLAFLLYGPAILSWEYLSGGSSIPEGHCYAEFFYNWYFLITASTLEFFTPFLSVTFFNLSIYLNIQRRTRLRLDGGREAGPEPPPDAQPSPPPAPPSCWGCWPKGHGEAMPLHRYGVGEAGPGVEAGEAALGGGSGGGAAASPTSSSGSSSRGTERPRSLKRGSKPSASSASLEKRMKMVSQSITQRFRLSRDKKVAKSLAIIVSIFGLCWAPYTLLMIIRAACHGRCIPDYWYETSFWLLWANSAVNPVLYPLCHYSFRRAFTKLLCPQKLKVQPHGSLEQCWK
Put plainly: Antagonism test of drinking behavior induced by R-α-methylhistamine, a histamine H3 receptor selective agonist. Type of data set: in vivo. The following applies: male SD rat, 10 mg/kg oral 2 hours before R-α-methylhistamine, measured 1 hour after. The method, then: Under ketamine/xylazine anaesthesia (74 mg/kg and 11 mg/kg intraperitoneal single-dose administration), a chronic guide cannula (26 gauge, length 11 mm) was inserted in the ventriculus tertius of a male SD rat (7-10 weeks old, 200-300 g) using a brain stereotaxis apparatus, and fixed by dental resin. The position of the tip of the guide cannula was 2.2 mm back from the bregma, and at a depth of 8 mm from the skull surface on the median line. After about 1 week convalescence, R-α-methylhistamine (0.3 μg/1 μL/head, 30% propylene glycol solution) was administered to the ventriculus tertius. The test compound (the compound of Example 1) suspended in 0.5% methylcellulose aqueous solution was administered orally 2 hours before the R-α-methylhistamine administration, and the drinking water amount was measured 1 hour after R-α-methylhistamine administration.

Usually melting point stands for the temperature of the solid-liquid transition. `Cc1nc2ccncc2c(=O)n1-c1ccc(OC2CCN(C3CCCC3)CC2)cc1` [Example 101, 3-{4-[(1-cyclopentyl-4-piperidinyl)oxy]phenyl}-2-methylpyrido[4,3-d]pyrimidin-4(3H)-one] displayed a melting point of 140 to 143 °C. `CCc1nc2ncccc2c(=O)n1-c1ccc(OC2CCN(C3CCC3)CC2)cc1` [Example 111, 3-{4-[(1-cyclobutyl-4-piperidinyl)oxy]phenyl}-2-ethylpyrido[2,3-d]pyrimidin-4(3H)-one] displayed a melting point of 146 to 148 °C. Same read-out and setting: in the case of `CCc1nc2ncccc2c(=O)n1-c1ccc(OCCCN2CCC[C@H](C)C2)cc1.Cl` it was 245 to 252 °C; in that of `COc1ccc2nc(C)n(-c3ccc(OCCCN4CCC[C@@H]4C)cc3)c(=O)c2c1` [Example 144, 6-methoxy-2-methyl-3-(4-{3-[(2S)-2-methylpyrrolidin-1-yl]propoxy}phenyl)-4(3H)-quinazolinone], 102 to 106 °C.

The compound `Cc1nc2cc(F)ccc2c(=O)n1-c1ccc(OC2CCN(C3CCC3)CC2)cc1` [Example 233, 3-{4-[(1-cyclobutylpiperidin-4-yl)oxy]phenyl}-7-fluoro-2-methyl-4(3H)-quinazolinone] had a melting point of 163 to 166 °C. Same read-out and setting: in the case of `COc1cc2c(=O)n(-c3ccc(OCCCN4CCCC4)cc3)c(C)nc2cn1` [Example 200, 6-methoxy-2-methyl-3-[4-(3-pyrrolidin-1-ylpropoxy)phenyl]pyrido[3,4-d]-pyrimidin-4(3H)-one] it was 123 to 126 °C; in that of `Cc1nc2ccc(F)cc2c(=O)n1-c1ccc(OC2CCN(C3CCC3)CC2)cc1` [Example 232, 3-{4-[(1-cyclobutylpiperidin-4-yl)oxy]phenyl}-6-fluoro-2-methyl-4(3H)-quinazolinone], 122 to 125 °C. On the same count and under the same terms, in the case of `Cc1nc2cnccc2c(=O)n1-c1ccc(OC2CCN(C3CCC3)CC2)cc1` [Example 114, 3-{4-[(1-cyclobutyl-4-piperidinyl)oxy]phenyl}-2-methylpyrido[3,4-d]pyrimidin-4(3H)-one] it was 169 to 171 °C; in that of `COc1ccc2nc(C)n(-c3ccc(OCCCN4CCC[C@H]4C)cc3)c(=O)c2c1` [Example 172, 6-methoxy-2-methyl-3-(4-{3-[(2R)-2-methylpyrrolidin-1-yl]propoxy}phenyl)-4(3H)-quinazolinone], 106 to 108 °C; in that of `Cc1nc2ccncc2c(=O)n1-c1ccc(OCCCN2CCC[C@H]2C)cc1` [Example 266, 2-methyl-3-(4-{3-[(2R)-2-methylpyrrolidin-1-yl]propoxy}phenyl)pyrido[4,3-d]pyrimidin-4(3H)-one], 238 to 250 °C. Still for that read-out and setting: in the case of `COc1ccc2nc(C)n(-c3ccc(OCCCN4CCCCC4)cc3)c(=O)c2c1` [Example 36, 6-methoxy-2-methyl-3-{4-[3-(1-piperidinyl)propoxy]phenyl}-4(3H)-quinazolinone] it was 136 to 138 °C; in that of `COc1cccc2nc(C)n(-c3ccc(OCCCN4CCC[C@H](C)C4)cc3)c(=O)c12` [Example 164, 5-methoxy-2-methyl-3-(4-{3-[(3S)-3-methylpiperidin-1-yl]propoxy}phenyl)-4(3H)-quinazolinone], 144 to 146 °C.

As usually defined, the bioavailability is dose-corrected exposure relative to a reference, in per cent. Low readings indicate poor availability, high ones good availability. In general, half-life refers to the time in which the quantity being followed falls by half. `CCc1nc2ccccc2c(=O)n1-c1ccc(OCCCN2CCCCC2)cc1` [Example 1, 2-ethyl-3-{4-[3-(1-piperidinyl)propoxy]phenyl}-4(3H)-quinazolinone]: the intracerebral concentration in data set [1] is on record as 3.16 nmol/g. The concentration at 2 h came out at 142 nM in data set [1] (cerebrospinal fluid, read-out: cerebrospinal fluid concentration) and 2320 nM in data set [1] (plasma, read-out: plasma concentration). The compound also showed a bioavailability in data set [2] of 60%. In addition, the half-life in data set [2] (read-out: half-life in blood (converted)) is 6.3 h. Moreover, the IC50 in data set [3] ([3H]N-α-methylhistamine, preparation from histamine H3 receptor expression cells, 50 mM Tris pH 7.4, 25° C., 2 hours, read-out: 50% inhibition concentration (IC50 value) with respect to specific N-α-methylhistamine linkages) is 0.015 µM. Moreover, the “binding of N-α-methylhistamine to the histamine H3 receptor” value in data set [3] (summary in words of the binding test) was “strongly prevented binding”. In addition, the “increase in drinking water amount due to R-α-methylhistamine administered to the ventriculus tertius” value in data set [4] is “significantly suppressed”. `Cc1nc2cccc(F)c2c(=O)n1-c1ccc(OCCCN2CCCCC2)cc1` [Example 26, 5-fluoro-2-methyl-3-{4-[3-(1-piperidinyl)propoxy]phenyl}-4(3H)-quinazolinone] gave a melting point of 141 to 145 °C.

`COc1ccc2c(=O)n(-c3ccc(OCCCN4CCC[C@H](C)C4)cc3)c(C)nc2c1` [Example 170, 7-methoxy-2-methyl-3-(4-{3-[(3S)-3-methyl-piperidin-1-yl]propoxy}phenyl)-4(3H)-quinazolinone]: the melting point was in the range of 94 to 96 °C. The compound `COc1cc2c(=O)n(-c3ccc(OCCCN4CCCCC4)cc3)c(C)nc2cn1` [Example 199, 6-methoxy-2-methyl-3-[4-(3-piperidin-1-ylpropoxy)phenyl]pyrido[3,4-d]pyrimidin-4(3H)-one] gave a melting point of 145 to 147 °C. For the compound `Cc1nc2cnc(F)cc2c(=O)n1-c1ccc(OC2CCN(C3CCC3)CC2)cc1` [Example 230, 3-{4-[(1-cyclobutyl-piperidin-4-yl)oxy]phenyl}-6-fluoro-2-methylpyrido[3,4-d]pyrimidin-4(3H)-one], the melting point was in the range of 161 to 163 °C. Consider `CCc1nc2ccncc2c(=O)n1-c1ccc(OC2CCN(C3CCC3)CC2)cc1` [Example 109, 3-{4-[(1-cyclobutyl-4-piperidinyl)oxy]phenyl}-2-ethylpyrido[4,3-d]pyrimidin-4(3H)-one], for which the melting point was 186 to 189 °C. Still for that read-out and setting: in the case of `Cc1nc2ncccc2c(=O)n1-c1ccc(OCCCN2CCC[C@H](C)C2)cc1.Cl` it was 255 to 262 °C; in that of `COc1ccc2nc(C)n(-c3ccc(OC4CCN(C5CCC5)CC4)cc3)c(=O)c2c1` [Example 228, 3-{4-[(1-cyclobutylpiperidin-4-yl)oxy]phenyl}-6-methoxy-2-methyl-4(3H)-quinazolinone], 171 to 173 °C.

In the case of `Cc1nc2cccc(F)c2c(=O)n1-c1ccc(OCCCN2CCC[C@H]2C)cc1` [Example 260, 5-fluoro-2-methyl-3-(4-{3-[(2R)-2-methylpyrrolidin-1-yl]propoxy}phenyl)-4(3H)-quinazolinone], the melting point fell in the range of 125 to 127 °C. For the compound `Cc1nc2c(F)cccc2c(=O)n1-c1ccc(OC2CCN(C3CCC3)CC2)cc1` [Example 242, 3-{4-[(1-cyclobutylpiperidin-4-yl)oxy]phenyl}-8-fluoro-2-methyl-4(3H)-quinazolinone], the melting point lay within 177 to 179 °C.
